Source: patent EP0973746B1, “SUBSTITUTED 3-CYANO QUINOLINES” (Wyeth Holdings Corporation, priority 1997, dated 1998)
Converted amounts (≈) assume the structure as drawn. “And” between values parts separate entries of the source, which are not always exact repeats. Equal entries are not always repeated. Where two headings read alike, the source gives them in different places.

Key:
A549 = experiment: Inhibition of cancer cell growth as measured by cell number, A549; format: cell-based; conditions: Homo sapiens, A549, 48 h, read-out: IC50 A549
LNCAP = experiment: Inhibition of cancer cell growth as measured by cell number, LNCAP; format: cell-based; conditions: Homo sapiens, 48 h, read-out: IC50 LNCAP
CACO2 = experiment: Inhibition of cancer cell growth as measured by cell number, CACO2; format: cell-based; conditions: Homo sapiens, Caco-2, 48 h, read-out: IC50 CACO2
HCT15 = experiment: Inhibition of cancer cell growth as measured by cell number, HCT15; format: cell-based; conditions: Homo sapiens, HCT-15, 48 h, read-out: IC50 HCT15
LX1 = experiment: Inhibition of cancer cell growth as measured by cell number, LX1; format: cell-based; conditions: Homo sapiens, LX-1, 48 h, read-out: IC50 LX1
DU145 = experiment: Inhibition of cancer cell growth as measured by cell number, DU145; format: cell-based; conditions: Homo sapiens, DU-145, 48 h, read-out: IC50 DU145
A431 [1] = experiment: Inhibition of cell growth by incorporation of [3H]-thymidine, A431; format: cell-based, human; conditions: Homo sapiens, A-431, read-out: IC50 A431
Protocol: (§1) Representative compounds of this invention were evaluated for their ability to inhibit the growth of the cell lines described below in vitro. The inhibition is quantitated by measuring the decrease in the incorporation of radio-labeled thymidine when the cells are grown in the presence of the inhibitor. […] Cells were routinely grown in a humidified incubator in 5% CO2 in air.
(§2) Cells were seeded at 10,000 cells/well in 96 well plates in complete media and allowed to grow to log phase. At this stage the complete media was replaced with media containing 0.5% FBS (for cells growing in 10% FBS) or media lacking epidermal growth factor (EGF) (for cells growing in serum free media). […] Media with test compound was then removed and complete media was added back. The cells were allowed to grow for 18 hours. This is followed by incubation in [^3H]thymidine (1mCi/ml in serum/EGF media) for 4 hours. Cells were lysed in 0.5 M NaOH for at least 30 min at 37°C and radioactivity analyzed.
(§3) The % inhibition of the compound evaluated was determined for at least three different concentrations and the IC50 value evaluated from the dose response curve. […] CPM(control) is in units of counts per minute and is a number expressing the amount of [^3H]thymidine incorporated onto the DNA when cells are grown in the absence of test compound as measured by liquid scintillation counting.

T47D = experiment: Inhibition of cancer cell growth as measured by cell number, T47D; format: cell-based; conditions: Homo sapiens, 48 h, read-out: IC50 T47D
MIP = experiment: Inhibition of cancer cell growth as measured by cell number, MIP; format: cell-based; conditions: Homo sapiens; cell number, Sulforhodamine B, 48 hours exposure; Table 4; read-out: IC50 MIP
A27805 = experiment: Inhibition of cancer cell growth as measured by cell number, A27805; format: cell-based; conditions: Homo sapiens, 48 h, read-out: IC50 A27805
CCRF-CFM = experiment: Inhibition of cancer cell growth as measured by cell number, CCRF-CFM; format: cell-based; conditions: Homo sapiens, 48 h, read-out: IC50 CCRF-CFM
MCF7 = experiment: Inhibition of cancer cell growth as measured by cell number, MCF7; format: cell-based, human; conditions: Homo sapiens, MCF7, 48 h, read-out: IC50 MCF7, cell number, Sulforhodamine B, 48 hours exposure;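 also: MCF7 was included as a line with little or no EGFR or HER2/neu expression, in contrast to the receptor-overexpressing lines of the panel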
Description: (§4) The cell lines were chosen since they overexpressed epidermal growth factor receptor (EGFR) (i.e. A431) or HER2/neu (SKBR3), or had little to no expression of the these receptors (SW620, LOX, MCF7).

[2] = test system: human epidermoid tumors (A431); experiment: In vivo inhibition of the growth of human epidermoid tumors (A431); conditions: for S/T = No. Survivors/No. Treated: Day +28 post tumor staging; for tumor growth was inhibited: 100 mg/kg administered i.p. during days 1-10
Method in brief: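 Female BALB/c nu/nu mice from Charles River were injected subcutaneously with 5 X 10^6 human epidermoid (A431) tumor cells. Once tumors weighed 100 to 150 mg, animals were randomized into treatment groups on day zero, and untreated controls were included. Tumor mass, calculated as (length X width^2)/2, was measured every 7 days for 28 days after staging. Relative growth was mean mass on days 7, 14, 21 and 28 divided by the day-zero mean.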

CX1 = experiment: Inhibition of cancer cell growth as measured by cell number, CX1; format: cell-based; conditions: Homo sapiens, CX-1, 48 h, read-out: IC50 CX1
LS174T = experiment: Inhibition of cancer cell growth as measured by cell number, LS174T; format: cell-based; conditions: Homo sapiens, 48 h, read-out: IC50 LS174T
SW620 = experiment: Inhibition of cancer cell growth as measured by cell number, SW620; format: cell-based, human; conditions: Homo sapiens, SW-620, 48 h, read-out: IC50 SW620, cell number, Sulforhodamine B, 48 hours exposure;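 also: SW620 was included as a cell line with little or no EGFR or HER2/neu expression, in contrast to receptor-overexpressing lines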
Description: as §4

LOX = experiment: Inhibition of cancer cell growth as measured by cell number, LOX; format: cell-based, human; conditions: Homo sapiens, LOX, 48 h, read-out: IC50 LOX, cell number, Sulforhodamine B, 48 hours exposure;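 also: LOX cells served as a line with low or absent EGFR and HER2/neu expression, in contrast to receptor-overexpressing lines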
Description: as §4

NEC = experiment: Inhibition of cancer cell growth as measured by cell number, NEC; format: cell-based; conditions: Homo sapiens, 48 h, read-out: IC50 NEC
SKBR3 = experiment: Inhibition of cancer cell growth as measured by cell number, SKBR3; format: cell-based, human; conditions: Homo sapiens, SK-BR-3, 48 h, read-out: IC50 SKBR3, cell number, Sulforhodamine B, 48 hours exposure;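 also: SK-BR-3 cells were selected as a line overexpressing HER2/neu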
Description: as §4

[3] = biological target: recombinant human MEK 1 (MAPKK) and recombinant human ERK2 (MAPK); experiment: Mitogen Activated Protein Kinase (MAPK) assay, two component coupled MEK 1 / ERK2; format: biochemical; conditions: separate entries for the same compound = evaluated more than one time;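 also: MEK 1-activated ERK2 phosphorylates MBP or Myc peptide with 33P-ATP, filter capture and scintillation counting, inhibitor preincubated with ERK2 30 min at 0 °C, inhibition relative to uninhibited control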
HTB161 = experiment: Inhibition of cancer cell growth as measured by cell number, HTB161; format: cell-based; conditions: Homo sapiens, 48 h, read-out: IC50 HTB161
A2780DDP = experiment: Inhibition of cancer cell growth as measured by cell number, A2780DDP; format: cell-based; conditions: Homo sapiens, 48 h, read-out: IC50 A2780DDP
NHEK = experiment: Inhibition of cell growth by incorporation of [3H]-thymidine, NHEK; format: cell-based, human; conditions: Homo sapiens, read-out: IC50 NHEK
Protocol: as §1, §2, §3

A431 [4] = experiment: Inhibition of cancer cell growth as measured by cell number, A431; format: cell-based, human; conditions: Homo sapiens, A-431, 48 h, read-out: IC50 A431, cell number, Sulforhodamine B, 48 hours exposure;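 also: human A431 line, picked because it overexpresses epidermal growth factor receptor (EGFR)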
Description: as §4

COLO205 = experiment: Inhibition of cancer cell growth as measured by cell number, COLO205; format: cell-based; conditions: Homo sapiens, COLO 205, 48 h, read-out: IC50 COLO205
SW948 = experiment: Inhibition of cancer cell growth as measured by cell number, SW948; format: cell-based; conditions: Homo sapiens, SW948, 48 h, read-out: IC50 SW948
CCL228 = experiment: Inhibition of cancer cell growth as measured by cell number, CCL228; format: cell-based; conditions: Homo sapiens, 48 h, read-out: IC50 CCL228
[5] = biological target: epidermal growth factor receptor kinase (Homo sapiens, UniProt P00533); experiment: biochemical
Sequence of epidermal growth factor receptor kinase (P00533 25-1210): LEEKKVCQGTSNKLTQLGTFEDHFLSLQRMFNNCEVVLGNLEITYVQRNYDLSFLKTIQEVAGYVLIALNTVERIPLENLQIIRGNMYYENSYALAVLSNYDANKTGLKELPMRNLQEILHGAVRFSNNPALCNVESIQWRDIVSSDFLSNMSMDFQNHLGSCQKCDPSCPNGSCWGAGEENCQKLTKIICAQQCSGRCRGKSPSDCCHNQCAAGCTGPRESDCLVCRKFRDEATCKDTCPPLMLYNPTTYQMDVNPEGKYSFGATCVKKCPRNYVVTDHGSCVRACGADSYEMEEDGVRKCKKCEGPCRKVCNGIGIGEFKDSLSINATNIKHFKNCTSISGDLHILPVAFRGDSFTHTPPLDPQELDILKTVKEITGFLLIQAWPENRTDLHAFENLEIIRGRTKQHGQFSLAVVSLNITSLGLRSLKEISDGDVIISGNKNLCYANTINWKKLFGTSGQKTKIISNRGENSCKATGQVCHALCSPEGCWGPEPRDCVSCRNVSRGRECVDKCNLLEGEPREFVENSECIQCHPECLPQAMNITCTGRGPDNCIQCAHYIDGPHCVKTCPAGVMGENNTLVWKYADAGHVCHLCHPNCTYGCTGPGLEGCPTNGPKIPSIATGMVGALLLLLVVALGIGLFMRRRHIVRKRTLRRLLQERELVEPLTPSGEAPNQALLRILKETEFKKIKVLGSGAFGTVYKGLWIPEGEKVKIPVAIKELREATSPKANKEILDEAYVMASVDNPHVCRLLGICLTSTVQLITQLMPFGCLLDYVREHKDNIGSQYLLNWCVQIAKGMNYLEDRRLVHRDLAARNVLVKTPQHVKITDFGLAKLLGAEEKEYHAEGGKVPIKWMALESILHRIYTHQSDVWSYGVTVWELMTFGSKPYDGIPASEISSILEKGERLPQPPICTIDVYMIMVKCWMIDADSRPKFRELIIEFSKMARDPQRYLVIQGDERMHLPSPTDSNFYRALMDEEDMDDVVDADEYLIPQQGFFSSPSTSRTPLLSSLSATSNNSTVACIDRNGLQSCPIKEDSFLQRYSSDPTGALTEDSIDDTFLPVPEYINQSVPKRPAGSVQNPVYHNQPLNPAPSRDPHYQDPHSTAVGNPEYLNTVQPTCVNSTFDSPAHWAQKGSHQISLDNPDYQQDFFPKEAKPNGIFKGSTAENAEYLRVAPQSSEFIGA
Protocol: The enzyme was obtained as a membrane extract of A431 cells (American Type Culture Collection, Rockville, MD). A431 cells were grown in T175 flasks to 80% confluency. The cells were washed twice with phosphate buffered saline (PBS) without Ca^2+. Flasks were rotated for 1.5 hours in 20 ml PBS with 1.0 mM ethylenediaminetetraacetic acid (EDTA) at room temperature and centrifuged at 600g for 10 minutes. The cells were solubilized in 1 ml per 5 x 10^6 cells of cold lysis buffer {10mM 4-(2-hydroxyethyl)-1-piperazineethane-sulfonic acid (HEPES), pH 7.6, 10 mM NaCl, 2mM EDTA, 1mM phenylmethyl-sulfonyl-fluoride (PMSF), 10 mg/ml aprotinin, 10 mg/ml leupeptin, 0.1 mM sodium orthovanadate} in a Dounce homogenizer with 10 strokes on ice. The lysate was centrifuged at 600g for 10 minutes first to clear cell debris and the supernatant further centrifuged at 100,000 g for 30 min at 4°C. The membrane pellet was suspended in 1.5 ml HNG buffer (50 mM HEPES, pH 7.6, 125 mM NaCl, 10% glycerol). The membrane extract was divided into aliquots, immediately frozen in liquid nitrogen and stored at -70°C.
Compounds to be evaluated were made into 10 mg/ml stock solutions in 100% dimethylsulfoxide (DMSO). Prior to experiment, stock solutions were diluted to 500 mM with buffer (30 mM Hepes pH 7.4) and then serially diluted to the desired concentration.
An aliquot of the A431 membrane extract (10 mg/ml) was diluted in 30 mM HEPES (pH 7.4) to give a protein concentration of 50 ug/ml. […] To this was added the ^33p-ATP (10 mCi/ml) diluted 1:10 in assay buffer along with the substrate peptide at a concentration of 0.5 mM (control reactions get no test compound) and the reaction was allowed to proceed for 30 min at 30°C. The reaction was stopped with 10% TCA and left on ice for at least 10 min after which tubes were microcentrifuged at full speed for 15 min. The a portion of the supernatants were spotted on P81 phosphocellulose discs and washed twice in 1% acetic acid then water for 5 min each followed by scintillation counting. […] The % inhibition of the test compound was determined for at least three different concentrations and the IC50 value was evaluated from the dose response curve. […] CPM(control) is in units of counts per minute and was a number expressing the amount of radiolabeled ATP (g-^33P) incorporated into the RR-SRC peptide substrate by the enzyme after 30 minutes at 30°C in the absence of test compound as measured by liquid scintillation counting. The CPM values were corrected for the background counts produced by ATP in the absence of the enzymatic reaction. The IC50 values reported in TABLE 1 are averages of the number of tests conducted.

HL60 = experiment: Inhibition of cancer cell growth as measured by cell number, HL60; format: cell-based; conditions: Homo sapiens, HL-60, 48 h, read-out: IC50 HL60
[6] = 10 mg/kg/dose IP on days 1 through 10
[7] = 50 mg/kg/dose IP on days 1 through 10
[8] = 100 mg/kg/dose IP on days 1 through 10

**Q.** Which results are given for `CCOc1cc2ncc(C#N)c(Nc3cccc(Br)c3)c2cc1OCC` [Example 47, 4-[(3-Bromophenyl)amino]6,7-diethoxy-3-quinolinecarbonitrile]?
**A.** IC50 (A549): 0.0679 µg/mL (≈ 0.165 µM); IC50 (LNCAP): 0.0337 µg/mL (≈ 0.0816 µM); IC50 (CACO2): 0.0701 µg/mL (≈ 0.17 µM); IC50 (HCT15): 0.0395 µg/mL (≈ 0.0959 µM); IC50 (LX1): 0.076 µg/mL (≈ 0.184 µM); IC50 (DU145): 0.068 µg/mL (≈ 0.165 µM); IC50 (A431 [1]): 1500 nM; IC50 (T47D): 0.0467 µg/mL (≈ 0.113 µM); IC50 (MIP): 0.0693 µg/mL (≈ 0.168 µM); IC50 (A27805): 0.053 µg/mL (≈ 0.129 µM); IC50 (CCRF-CFM): 0.068 µg/mL (≈ 0.165 µM); IC50 (MCF7; Table 5): 0.072 µg/mL (≈ 0.175 µM); IC50 (MCF7; Table 8): 0.02 µg/mL (≈ 0.0485 µM); %T/C Day 7 [2, 6]: 69%; %T/C Day 14 [2, 6]: 74%; %T/C Day 21 [2, 6]: 116%; %T/C Day 28 [2, 6]: 136%; S/T = No. Survivors/No. Treated [2, 6]: 5/5; %T/C Day 7 [2, 7]: 44 (d) %; %T/C Day 14 [2, 7]: 55 (d) %; %T/C Day 21 [2, 7]: 87%; %T/C Day 28 [2, 7]: 102%; S/T = No. Survivors/No. Treated [2, 7]: 5/5; tumor growth was inhibited ([2]; day 7): 66%; tumor growth was inhibited ([2]; day 14): 63%; tumor growth was inhibited ([2]; day 28): 57%; %T/C Day 7 [2, 8]: 34(d) %; %T/C Day 14 [2, 8]: 37(d) %; %T/C Day 21 [2, 8]: 51%; %T/C Day 28 [2, 8]: 43%; S/T = No. Survivors/No. Treated [2, 8]: 5/5; IC50 (CX1): 0.0618 µg/mL (≈ 0.15 µM); IC50 (LS174T): 0.0468 µg/mL (≈ 0.114 µM); IC50 (SW620; Table 4): 0.0672 µg/mL (≈ 0.163 µM); IC50 (SW620; Table 8): < 0.01 µg/mL; IC50 (LOX; Table 6): 0.0605 µg/mL (≈ 0.147 µM); IC50 (LOX; Table 8): 0.03 µg/mL (≈ 0.0728 µM); IC50 (NEC): 0.0671 µg/mL (≈ 0.163 µM); IC50 (SKBR3; Table 7): 0.0467 µg/mL (≈ 0.113 µM); IC50 (SKBR3; Table 8): < 0.01 µg/mL; IC50 [3]: 8 µM and 5 µM; IC50 (HTB161): 3.95 ng/mL (≈ 0.00957 µM); IC50 (A2780DDP): 0.0645 µg/mL (≈ 0.157 µM); IC50 (NHEK): 30 nM; IC50 (A431 [4]; Table 6): 0.0446 µg/mL (≈ 0.108 µM); IC50 (A431 [4]; Table 8): < 0.01 µg/mL; IC50 (COLO205): 0.0757 µg/mL (≈ 0.184 µM); IC50 (SW948): 0.0683 µg/mL (≈ 0.166 µM); IC50 (CCL228): 0.0715 µg/mL (≈ 0.174 µM); IC50 [5]: 130 nM; IC50 (HL60): 0.0625 µg/mL (≈ 0.152 µM)
